Assay results as given in patent US12084473B2, “β-D-2′-deoxy-2′-α-fluoro-2′-β-C-substituted-2-modified-N6-substituted purine nucleotides for HCV treatment” (Atea Pharmaceuticals, Inc., priority 2015, dated 2024).
Like-named read-outs stand apart in the source and are kept apart here.

Assays:
[1] = test system: HCV genotype 1b luciferase reporter replicon; test: microbe, parasite or virus in culture; format: cell-based; conditions: for EC95 / EC50: Hepatitis C virus; for EC95: Huh-7 luc/neo ET cells, 72 hours, luciferase, read-out: HCV Replicon EC50/EC95: EC95; for EC50: read-out: EC50 in a replicon assay; for Fold increase in activity compared to parent nucleoside: Table 7
iPS Cardiomyocytes = test: iPS Cardiomyocyte Assay; format: cell-based, human; conditions: 3 days, XTT
Procedure: iPS Cardiomyocytes (Cellular Dynamics) were seeded in microliter plates at 1.5×10^4 cells per well. After 48-hr incubation, cells were washed and maintenance medium containing serially diluted TA was added in triplicate. After incubating for an additional 3 days, cell viability was measured by staining with XTT and CC50 values were calculated.

human hepatocytes = test: Metabolic studies in primary hepatocytes; format: in vitro ADME; conditions: 10 μM, 2-24 hr
Procedure: The metabolism of compounds 25, 27 and 5-2, at a concentration of 10 μM, were investigated in fresh primary cultures of human, dog and mouse hepatocytes. Plated hepatocytes from humans (XenoTech, mixed gender, pooled from 10 donors), male Beagle dog (BioreclamationIVT), and male ICR/CD-1 mice (BioreclamationIVT, 8 donors) in 6-well plates with matrigel overlay were incubated in singlet with 10 μM TA. After 2, 4, 6, 8 or 24 hr, intracellular levels of nucleotide prodrugs and their potential metabolites (prodrugs, monophosphates, triphosphates and nucleosides) were quantitated by LC-MS/MS. Concentrations below the lower limit of quantitation (1.5 pmol/10^6 cells for prodrugs, monophosphates and nucleosides and 12 pmol/10^6 cells for triphosphates) were extrapolated from the standard curves.

Huh-7 luc/neo ET cells = test: Cytotoxicity by XTT staining in replicon cells
Outline: (§1)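 Cells cultured 24 h, then exposed 72 h to six half-log dilutions (top 100.0 or 1.0 μM) in triplicate, with interferon-alpha2b reference and medium-only controls. Viability read by XTT staining on a parallel plate; TC50 derived from concentration-response.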

[2] = Cytotoxicity by XTT staining in replicon cells; conditions: human
Outline: as §1

[3] = test system: HCV Genotype 4a, NS5B Mutation none; test: microbe, parasite or virus in culture; format: cell-based; conditions: for IC50: Hepatitis C virus, read-out: IC50 Value; for Fold Change in IC50 from Sofosbuvir / Fold Change in IC95 from Sofosbuvir / IC95 Value: genotype 4a, no NS5B mutation
Procedure: (§2) Various patient-derived HCV genotypes containing wild-type and resistance-associated variants were used to determine their relative replication sensitivity to test compounds. Replicon resistance test vectors (RTVs) containing the NS5B genomic regions were prepared using viral RNA isolated from plasma of HCV patients. Each NS5B region was amplified by reverse-transcription polymerase chain reaction and cloned into an HCV replicon RTV which was then transferred by electroporation into Huh-7 cells.

[4] = test system: HCV Genotype 1b, NS5B Mutation none; test: microbe, parasite or virus in culture; format: cell-based; conditions: for IC50: Hepatitis C virus, read-out: IC50 Value; for Fold Change in IC50 from Sofosbuvir / Fold Change in IC95 from Sofosbuvir / IC95 Value: genotype 1b, no NS5B mutation
Procedure: as §2

[5] = test system: HCV Genotype 1b, NS5B Mutation C316N; test: microbe, parasite or virus in culture; format: cell-based; conditions: for IC50: Hepatitis C virus, read-out: IC50 Value; for Fold Change in IC50 from Sofosbuvir / Fold Change in IC95 from Sofosbuvir / IC95 Value: genotype 1b, NS5B C316N
Procedure: as §2

[6] = test system: HCV Genotype 3a-2, NS5B Mutation none; test: microbe, parasite or virus in culture; format: cell-based; conditions: for IC50: Hepatitis C virus, read-out: IC50 Value; for Fold Change in IC50 from Sofosbuvir / Fold Change in IC95 from Sofosbuvir / IC95 Value: genotype 3a-2, no NS5B mutation
Procedure: as §2

[7] = test system: HCV Genotype 3a-1, NS5B Mutation none; test: microbe, parasite or virus in culture; format: cell-based; conditions: for IC50: Hepatitis C virus, read-out: IC50 Value; for Fold Change in IC50 from Sofosbuvir / Fold Change in IC95 from Sofosbuvir / IC95 Value: genotype 3a-1, no NS5B mutation
Procedure: as §2

[8] = test system: HCV Genotype 1a, NS5B Mutation none; test: microbe, parasite or virus in culture; format: cell-based; conditions: for IC50: Hepatitis C virus, read-out: IC50 Value; for Fold Change in IC50 from Sofosbuvir / Fold Change in IC95 from Sofosbuvir / IC95 Value: genotype 1a, no NS5B mutation
Procedure: as §2

[9] = test system: HCV Genotype 1a, NS5B Mutation L159F and S282T; test: microbe, parasite or virus in culture; format: cell-based; conditions: for IC50: Hepatitis C virus, read-out: IC50 Value; for Fold Change in IC50 from Sofosbuvir / Fold Change in IC95 from Sofosbuvir / IC95 Value: genotype 1a, NS5B L159F and S282T
Procedure: as §2

[10] = test system: HCV Genotype 1a, NS5B Mutation L159F; test: microbe, parasite or virus in culture; format: cell-based; conditions: for IC50: Hepatitis C virus, read-out: IC50 Value; for Fold Change in IC50 from Sofosbuvir / Fold Change in IC95 from Sofosbuvir / IC95 Value: genotype 1a, NS5B L159F
Procedure: as §2

[11] = test system: HCV Genotype 2b, NS5B Mutation none; test: microbe, parasite or virus in culture; format: cell-based; conditions: for IC50: Hepatitis C virus, read-out: IC50 Value; for Fold Change in IC50 from Sofosbuvir / Fold Change in IC95 from Sofosbuvir / IC95 Value: genotype 2b, no NS5B mutation
Procedure: as §2

[12] = test system: HCV Genotype 4d, NS5B Mutation none; test: microbe, parasite or virus in culture; format: cell-based; conditions: for IC50: Hepatitis C virus, 96 h, read-out: IC50 Value; for Fold Change in IC50 from Sofosbuvir / Fold Change in IC95 from Sofosbuvir / IC95 Value: genotype 4d, no NS5B mutation
Procedure: as §2

[13] = test system: HCV Genotype 2a, NS5B Mutation none; test: microbe, parasite or virus in culture; format: cell-based; conditions: for IC50: Hepatitis C virus, read-out: IC50 Value; for Fold Change in IC50 from Sofosbuvir / Fold Change in IC95 from Sofosbuvir / IC95 Value: genotype 2a, no NS5B mutation
Procedure: as §2

[14] = test system: HCV genotype 1b luciferase reporter replicon; test: microbe, parasite or virus in culture; format: cell-based; conditions: Hepatitis C virus, HuH-7-Luc/Neo-ET, 72 h, read-out: HCV Replicon EC50/EC95: EC50
[15] = test system: human bone marrow progenitor cells; test: Human Bone Marrow Progenitor Cell Assay; format: cell-based; conditions: 14-day incubations, colony counts
Procedure: Fresh human bone marrow progenitor cells (Invitrogen) suspended in either BFU-E or GM-CSF-specific culture medium were added, at 10^5 cells/well, to triplicate serial dilutions of TA in 6-well plates. After 14-day incubations, colony counts were used to determine CC50 values. BFU-E colonies were confirmed using the benzidene technique.

CC(C)OC(=O)[C@H](C)N[P@](=O)(OCC1O[C@@H](n2cnc3c(N(C)C)nc(N)nc32)[C@](C)(F)[C@@H]1O)Oc1ccccc1 (stereo partly drawn) [Compound 25, isopropyl ((((S)-(2R,3R,4R,5R)-5-(2-amino-6-(dimethylamino)-9H-purin-9-yl)-4-fluoro-3-hydroxy-4-methyltetrahydrofuran-2-yl)methoxy)-phenoxy-phosphoryl)-L-alaninate]
fold increase in activity (versus parent nucleoside) [1]: ≥ 2,600
EC95 [1]: 19 nM
EC50 [1]: 4 nM
Fold increase in activity compared to parent nucleoside [1]: >2,600
cytotoxicity against iPS cardiomyocytes in vitro (iPS Cardiomyocytes): no cytotoxicity
predominant metabolite observed in cultured human hepatocytes (human hepatocytes): β-D-2′-deoxy-2′-α-fluoro-2′-β-methyl-guanine triphosphate
CC50 (Huh-7 luc/neo ET cells; read-out: HCV Replicon CC50, XTT, 72 hours): > 100000 nM
CC50 (Huh-7 luc/neo ET cells; read-out: TC50, FIG. 3 legend): > 100000 nM
CC50 at 72 h [2]: > 100000 nM
IC50 [3]: 4.6 nM
Fold Change in IC50 from Sofosbuvir [3]: 16.2
Fold Change in IC95 from Sofosbuvir [3]: 20.7
IC95 Value [3]: 33.0 nM
IC50 [4]: 5.9 nM
Fold Change in IC50 from Sofosbuvir [4]: 1.0
Fold Change in IC95 from Sofosbuvir [4]: 20.0
IC95 Value [4]: 32.0 nM
cross-resistance to C316N mutant [5]: neither 25, 27 nor 5-2 compound showed any evidence of cross-resistance
IC50 [5]: 3.2 nM
Fold Change in IC50 from Sofosbuvir [5]: 23.1
Fold Change in IC95 from Sofosbuvir [5]: 26.2
IC95 Value [5]: 18.1 nM
IC50 [6]: 4.7 nM
Fold Change in IC50 from Sofosbuvir [6]: 26.3
Fold Change in IC95 from Sofosbuvir [6]: 33.4
IC95 Value [6]: 24.2 nM
IC50 [7]: 5.1 nM
Fold Change in IC50 from Sofosbuvir [7]: 24.5
Fold Change in IC95 from Sofosbuvir [7]: 24.8
IC95 Value [7]: 27.8 nM
IC50 [8]: 4.4 nM
Fold Change in IC50 from Sofosbuvir [8]: 14.2
Fold Change in IC95 from Sofosbuvir [8]: 16.2
IC95 Value [8]: 31.3 nM
cross-resistance to L159F and S282T mutant [9]: neither 25, 27 nor 5-2 compound showed any evidence of cross-resistance
IC50 [9]: 17.2 nM
Fold Change in IC50 from Sofosbuvir [9]: 94.0
Fold Change in IC95 from Sofosbuvir [9]: 107.0
IC95 Value [9]: 158.5 nM
cross-resistance to L159F mutant [10]: neither 25, 27 nor 5-2 compound showed any evidence of cross-resistance
IC50 [10]: 5.2 nM
Fold Change in IC50 from Sofosbuvir [10]: 22.0
Fold Change in IC95 from Sofosbuvir [10]: 26.4
IC95 Value [10]: 40.4 nM
IC50 [11]: 3 nM
Fold Change in IC50 from Sofosbuvir [11]: 15.2
Fold Change in IC95 from Sofosbuvir [11]: 19.9
IC95 Value [11]: 14.9 nM
IC50 [12]: 5.9 nM
Fold Change in IC50 from Sofosbuvir [12]: 16.0
Fold Change in IC95 from Sofosbuvir [12]: 23.1
IC95 Value [12]: 44.2 nM
IC50 [13]: 2.7 nM
Fold Change in IC50 from Sofosbuvir [13]: 8.4
Fold Change in IC95 from Sofosbuvir [13]: 8.8
IC95 Value [13]: 22.2 nM
EC50 [14]: 4 nM
cytotoxicity against bone marrow stem cells in vitro [15]: no cytotoxicity

CNc1nc(N)nc2c1ncn2[C@@H]1OC(CO[P@@](=O)(N[C@@H](C)C(=O)OC(C)C)Oc2ccccc2)[C@@H](O)[C@@]1(C)F (stereo partly shown) [Compound 5-2]
fold increase in activity (versus parent nucleoside) [1]: ≥ 3,900
EC95 [1]: 28 nM
EC50 [1]: 4 nM
Fold increase in activity compared to parent nucleoside [1]: >3,900
cytotoxicity against iPS cardiomyocytes in vitro (iPS Cardiomyocytes): no cytotoxicity
predominant metabolite observed in cultured human hepatocytes (human hepatocytes): β-D-2′-deoxy-2′-α-fluoro-2′-β-methyl-guanine triphosphate
TC50 (Huh-7 luc/neo ET cells): greater than one hundred
CC50 at 72 h [2]: > 100000 nM
IC50 [3]: 9.9 nM
Fold Change in IC50 from Sofosbuvir [3]: 7.5
Fold Change in IC95 from Sofosbuvir [3]: 9.2
IC95 Value [3]: 74.4 nM
IC50 [4]: 10.6 nM
Fold Change in IC50 from Sofosbuvir [4]: 0.8
Fold Change in IC95 from Sofosbuvir [4]: 8.9
IC95 Value [4]: 72.4 nM
cross-resistance to C316N mutant [5]: neither 25, 27 nor 5-2 compound showed any evidence of cross-resistance
IC50 [5]: 7.7 nM
Fold Change in IC50 from Sofosbuvir [5]: 9.6
Fold Change in IC95 from Sofosbuvir [5]: 11.1
IC95 Value [5]: 42.7 nM
IC50 [6]: 10.4 nM
Fold Change in IC50 from Sofosbuvir [6]: 11.9
Fold Change in IC95 from Sofosbuvir [6]: 14.3
IC95 Value [6]: 56.5 nM
IC50 [7]: 11.8 nM
Fold Change in IC50 from Sofosbuvir [7]: 10.7
Fold Change in IC95 from Sofosbuvir [7]: 11.6
IC95 Value [7]: 59.3 nM
IC50 [8]: 10.5 nM
Fold Change in IC50 from Sofosbuvir [8]: 6.0
Fold Change in IC95 from Sofosbuvir [8]: 8.4
IC95 Value [8]: 60.8 nM
cross-resistance to L159F and S282T mutant [9]: neither 25, 27 nor 5-2 compound showed any evidence of cross-resistance
IC50 [9]: 38.7 nM
Fold Change in IC50 from Sofosbuvir [9]: 41.9
Fold Change in IC95 from Sofosbuvir [9]: 54.1
IC95 Value [9]: 313.5 nM
cross-resistance to L159F mutant [10]: neither 25, 27 nor 5-2 compound showed any evidence of cross-resistance
IC50 [10]: 13 nM
Fold Change in IC50 from Sofosbuvir [10]: 8.8
Fold Change in IC95 from Sofosbuvir [10]: 11.2
IC95 Value [10]: 95.3 nM
IC50 [11]: 6.3 nM
Fold Change in IC50 from Sofosbuvir [11]: 7.1
Fold Change in IC95 from Sofosbuvir [11]: 9.1
IC95 Value [11]: 32.5 nM
IC50 [12]: 14 nM
Fold Change in IC50 from Sofosbuvir [12]: 6.7
Fold Change in IC95 from Sofosbuvir [12]: 12.8
IC95 Value [12]: 79.9 nM
IC50 [13]: 6.2 nM
Fold Change in IC50 from Sofosbuvir [13]: 3.6
Fold Change in IC95 from Sofosbuvir [13]: 4.3
IC95 Value [13]: 45.4 nM
EC50 [14]: 4 nM
cytotoxicity against bone marrow stem cells in vitro [15]: no cytotoxicity
